Data as given in ChEMBL document CHEMBL1146988, “The spermicidal and antitrichomonas activities of SSRI antidepressants” (2006).

Legend:
[1] = system: Trichomonas vaginalis; test: Antitrichomonas activity against Trichomonas vaginalis after 48 hrs; type: functional
[2] = system: Spermatozoa; test: Spermicidal activity against human spermatozoa; type: functional

**Q.** `CNCCC(Oc1ccc(C(F)(F)F)cc1)c1ccccc1.Cl` (stereo unspecified) [FLUOXETINE HYDROCHLORIDE] was tested. Which MLC [1] did it give?
**A.** Its MLC is 0.003%.

**Q.** Which MLC [1] does the source give for `CCCCCCCCCc1ccc(OCCOCCOCCOCCOCCOCCOCCOCCOCCO)cc1` [NONOXYNOL 9] here?
**A.** Its MLC is 0.002%.

**Q.** What about the MLC50 [1] of the same compound?
**A.** Its MLC50 is 0.0009%.

**Q.** And the ED50 [2]?
**A.** Its ED50 is 0.01%.

**Q.** What about the MEC [2] of the same compound?
**A.** The MEC was 0.05%.

**Q.** For `Cl.Cl.Fc1ccc([C@@H]2CCNC[C@H]2COc2ccc3c(c2)OCO3)cc1.Fc1ccc([C@@H]2CCNC[C@H]2COc2ccc3c(c2)OCO3)cc1.O` [PAROXETINE HYDROCHLORIDE], which MLC [1] is on record?
**A.** The MLC was greater than 0.01%.

**Q.** And the ED50 [2]?
**A.** Its ED50 is 0.008%.

**Q.** And the MEC [2]?
**A.** Its MEC is 0.1%.

**Q.** `Cl.NCCc1c[nH]c2ccc(O)cc12` [SEROTONIN HYDROCHLORIDE] was tested. Which MEC [2] did it give?
**A.** The MEC was greater than 1%.

**Q.** Which MLC [1] does the source give for `CN[C@H]1CC[C@@H](c2ccc(Cl)c(Cl)c2)c2ccccc21.Cl` [SERTRALINE HYDROCHLORIDE] here?
**A.** Its MLC is 0.003%.

**Q.** What about the MLC50 [1] of the same compound?
**A.** The MLC50 was 0.0012%.

**Q.** And the MEC [2]?
**A.** The MEC was 0.5%.

**Q.** With `COCCCC/C(=N\OCCN)c1ccc(C(F)(F)F)cc1.O=C(O)/C=C\C(=O)O` [FLUVOXAMINE MALEATE] as the compound, how does the MLC [1] read?
**A.** Its MLC is 0.005%.

**Q.** And the MLC50 [1]?
**A.** Its MLC50 is 0.003%.

**Q.** And the ED50 [2]?
**A.** Its ED50 is 0.005%.

**Q.** What about the MEC [2] of the same compound?
**A.** The MEC was 0.1%.
